Assay results as given in paper PMC5937083, “Physicochemical, Stress Degradation Evaluation and Pharmacokinetic Study of AZGH101; a New Synthesized COX2 Inhibitor after I.V. and Oral Administration in Male and Female Rats” (Iranian Journal of Pharmaceutical Research : IJPR, 2018).
Converted amounts (≈) assume the structure as drawn. Like-named read-outs stand apart in the source and are kept apart here.

What was measured:
[1] = cited from earlier work
[2] = 'It was reported'; cited from earlier work
[3] = Pharmacokinetic study after oral and intravenous administration to Wistar rats; format: in vivo; details: for k el: Wistar, read-out: β (elimination rate constant) (converted); for bioavailability: oral 20 mg/kg vs intravenous 10 mg/kg; for half-life: read-out: t1/2 β (converted)
Protocol: Male and female Wistar rats weighting 250 ± 10 g were used. They were kept at 25 ± 1 °C temperature and controlled humidity with 12 h light/dark cycle. The animals were fasted overnight before the experiment and had free access to water. The study protocol was approved by the local committee for animal experiments of Shahid Beheshti University of Medical Sciences (Tehran, Iran).
Male or female rats were chosen randomly (6 rats/group) and assigned to receive […] solution in normal saline for intravenous (IV) via the tail vein or oral administration via oral gavages. The administered doses in both sexes for intravenous (IV) and oral studies were 10 mg/kg and 20 mg/kg, respectively. Blood samples were collected from the tail vein immediately prior to administration (blank sample) and at 0.08, 0.25, 0.5, 1, 2, 4, 6, 8, 10, 21 and 22 h after administration into heparinized micro-tubes. Blood samples were centrifuged at 1000 g for 10 min and the separated plasmas were kept at –20 °C until analysis.
Pharmacokinetic analyses were performed using WinNonlin software (Pharsight Corporation, Mountain View, USA, Version 3.2) and two-compartmental model was chosen. The following pharmacokinetic parameters were estimated: terminal elimination half-life (t1/2), area under the plasma concentration versus time curve from zero to the infinity (AUC 0-∞), distribution and elimination rate constants (α, β), volume of distribution (Vd), and total body clearance (CL). The peak plasma concentration (Cmax) and the time to reach Cmax (Tmax) for oral dose were obtained directly from the observed individual plasma concentration-time data.

[4] = Octanol/water partition coefficient, log P (OECD Guideline No. 107); format: physicochemical; details: n = 3, read-out: log P (logarithm of octanol/water partition coefficient)
Protocol: (§1) Melting point was determined with an Electrothermal 9200 apparatus (UK). Aqueous solubility and octanol/water partition coefficient of the synthesized derivative was determined according to Organisation for Economic Co-operation and Development (OECD) Guideline for Testing of Chemicals, No.105, and No. 107 respectively ([11]-[13]).

[5] = Aqueous solubility (OECD Guideline No. 105); format: physicochemical; details: water; 3 replications
Protocol: as §1

COX-2 = details: cited from earlier work
[6] = Forced degradation stability study (ICH guideline for new drug substance); format: physicochemical; details: for Forced tests results, Mean ±SD: fraction recovered intact, 3 replications
Protocol: The stability study was conducted according to forced degradation protocol ICH guideline for new drug substance ([14]-[16]). In brief, the stability of AZGH101 at acidic, basic, and neutral medium was evaluated. Moreover, the effect of oxidative condition (H2O2, 3 and 30%), thermal degradation at solid state, and photolysis on the stability of AZGH101 was examined.

[7] = oral 20 mg/kg, female Wistar rats
[8] = oral 20 mg/kg, male Wistar rats
[9] = rat, plasma, intravenous 10 mg/kg, female Wistar rats
[10] = rat, plasma, intravenous 10 mg/kg, male Wistar rats
[11] = rat, plasma, oral 20 mg/kg, female Wistar rats
[12] = rat, plasma, oral 20 mg/kg, male Wistar rats

CC(C(=O)O)c1cccc(C(=O)c2ccccc2)c1 (stereo not drawn) [ketoprofen]
log P [1]: 3.1

Cc1ccc(-c2cc(C(F)(F)F)nn2-c2ccc(S(N)(=O)=O)cc2)cc1 [celecoxib]
solubility in water [2]: 3.3 µg/mL (≈ 8.65 µM)

CS(=O)(=O)c1ccc(-c2cc(C(=O)O)c3cc(C(=O)c4ccccc4)ccc3n2)cc1 [AZGH101, 6-benzoyl-2-(4-(methylsulfonyl)phenyl)quinoline-4-carboxylic acid]
k el ([3]; female, rat, plasma, iv, 10 mg/kg, intravenous 10 mg/kg, female Wistar rats): 9.72e-05 s⁻¹ | k el ([3]; female, rat, plasma, po, 20 mg/kg, oral 20 mg/kg, female Wistar rats): 3.61e-05 s⁻¹ | α (distribution rate constant) ([3]; intravenous 10 mg/kg, female Wistar rats): 3.70 ± 0.80 h⁻¹ | β (elimination rate constant) ([3]; intravenous 10 mg/kg, female Wistar rats, 10 mg/kg): 0.355 ± 0.006 h⁻¹ | α (distribution rate constant) ([3]; intravenous 10 mg/kg, male Wistar rats): 4.25 ± 0.99 h⁻¹ | β (elimination rate constant) ([3]; intravenous 10 mg/kg, male Wistar rats, 10 mg/kg): 0.349 ± 0.008 h⁻¹ | k el ([3]; male, rat, plasma, iv, 10 mg/kg, intravenous 10 mg/kg, male Wistar rats): 9.72e-05 s⁻¹ | k el ([3]; male, rat, plasma, po, 20 mg/kg, oral 20 mg/kg, male Wistar rats): 3.89e-05 s⁻¹ | Cl [3, 7]: 31.73 ± 3.31 mL/h | Ka [3, 7]: 1.00 ± 0.10 h⁻¹ | Vd [3, 7]: 245.87 ± 44.86 mL | α (distribution rate constant) [3, 7]: 3.86 ± 2.99 h⁻¹ | Cl [3, 8]: 32.45 ± 1.65 mL/h | Ka [3, 8]: 0.92 ± 0.18 h⁻¹ | Vd [3, 8]: 233.55 ± 27.82 mL | α (distribution rate constant) [3, 8]: 3.34 ± 1.26 h⁻¹ | bioavailability ([3]; rat, plasma, Wistar rats, both sexes, read-out: oral absolute bioavailability): ~27% | AUC(0-inf) [3, 9]: 79400 ± 5810 ng·h/mL | C0 [3, 9]: 86.8 ± 11.3 µg/mL | clearance [3, 9]: 0.527 mL/min | Vd ([3]; rat, plasma, intravenous 10 mg/kg, female Wistar rats, read-out: Vd): 89.3 ± 7.68 mL | half-life [3, 9]: 1.97 ± 0.06 h | AUC(0-inf) [3, 10]: 77100 ± 3620 ng·h/mL | C0 [3, 10]: 92.3 ± 11 µg/mL | clearance [3, 10]: 0.541 mL/min | Vd ([3]; rat, plasma, intravenous 10 mg/kg, male Wistar rats, read-out: Vd): 94.1 ± 6.42 mL | half-life [3, 10]: 2.01 ± 0.04 h | bioavailability ([3]; rat, plasma, female Wistar rats, read-out: F (oral absolute bioavailability)): 27.73 ± 0.01% | bioavailability ([3]; rat, plasma, male Wistar rats, read-out: F (oral absolute bioavailability)): 26.02 ± 0.03% | AUC(0-inf) [3, 11]: 41300 ± 4200 ng·h/mL | Cmax [3, 11]: 21.8 ± 1.33 µg/mL | Tmax [3, 11]: 0.5 h | half-life [3, 11]: 5.34 ± 0.48 h | AUC(0-inf) [3, 12]: 42800 ± 2240 ng·h/mL | Cmax [3, 12]: 20.4 ± 1.49 µg/mL | Tmax [3, 12]: 0.5 h | half-life [3, 12]: 4.99 ± 0.52 h | logP [4]: 3.82 ± 0.001 | solubility [5]: 1.4 ± 0.17 µg/mL (≈ 3.24 µM) | IC50 (COX-2): 77 nM | selectivity index (COX-1 IC50 / COX-2 IC50) (COX-2): less than 500 | tendency against inhibition of COX-2, times greater than ketoprofen (COX-2; relative to ketoprofen): about 10 times | Forced tests results, Mean ±SD ([6]; Hydrolysis (Acid)): 0.95±0.02 | Forced tests results, Mean ±SD ([6]; Hydrolysis (Base)): 0.92±0.03 | Forced tests results, Mean ±SD ([6]; Hydrolysis (Buffer pH=7)): 0.94±0.02 | Forced tests results, Mean ±SD ([6]; Oxidative stress (H2O2-3%)): 0.93±0.04 | Forced tests results, Mean ±SD ([6]; Oxidative stress (H2O2-30%)): 0.91±0.02 | Forced tests results, Mean ±SD ([6]; Photodegradation (Acid)): 0.94±0.02 | Forced tests results, Mean ±SD ([6]; Photodegradation (Base)): 0.94±0.01 | Forced tests results, Mean ±SD ([6]; Photodegradation (Buffer pH=7)): 0.95±0.02 | Forced tests results, Mean ±SD ([6]; Thermal Degradation (solid phase)): 0.96±0.03 | AZGH101 recovered intact ([6]; in all of the examined stress conditions): more than 90%
